Columns and labels:
[1] = test system: Pythium ultimum; experiment: Pythium ultimum / liquid culture (seedling damping off); type: cell-based; conditions: Globisporangium ultimum; 200 ppm; potato dextrose broth, 24° C., 2-3 days after application; read-out: disease control (inhibition of growth determined photometrically)
[2] = test system: Botryotinia fuckeliana (Botrytis cinerea); experiment: Botryotinia fuckeliana (Botrytis cinerea) / liquid culture (gray mould); type: cell-based; conditions: Vogels broth, 24° C., 3-4 days after application, read-out: disease control (inhibition of growth determined photometrically)
Description: 10. Botryotinia fuckeliana (Botrytis cinerea)/Liquid Culture (Gray Mould): Conidia of the fungus from cryogenic storage were directly mixed into nutrient broth (Vogels broth). After placing a DMSO solution of test compound into a 96-well microtiter plate at an application rate of 200 ppm, the nutrient broth containing the fungal spores was added. The test plates were incubated at 24° C. and the inhibition of growth was determined photometrically 3-4 days after application.

[3] = test system: Glomerella lagenarium (Colletotrichum lagenarium); experiment: Glomerella lagenarium (Colletotrichum lagenarium) / liquid culture (anthracnose); type: cell-based; conditions: Colletotrichum orbiculare, PDB potato dextrose broth, 24° C., 3-4 days after application, read-out: disease control (inhibition of growth measured photometrically)
Outline: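 Compound was applied at 200 ppm from DMSO solution, then potato dextrose broth carrying cryostored fungal spores was added. Growth inhibition was measured by photometry after 3-4 days of incubation at 24° C.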

[4] = test system: Mycosphaerella arachidis (Cercospora arachidicola); experiment: Mycosphaerella arachidis (Cercospora arachidicola) / liquid culture (early leaf spot); type: cell-based; conditions: PDB potato dextrose broth, 24° C., 4-5 days after application, read-out: disease control (inhibition of growth determined photometrically)
Outline: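 Test compound, applied at 200 ppm from DMSO solution, was combined with spore-containing potato dextrose broth. Photometric growth inhibition was scored after 4-5 days at 24° C.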

[5] = test system: Mycosphaerella graminicola (Septoria tritici); experiment: Mycosphaerella graminicola (Septoria tritici) / liquid culture (Septoria blotch); type: cell-based; conditions: Zymoseptoria tritici, PDB potato dextrose broth, 24° C., 4-5 days after application, read-out: disease control (inhibition of growth determined photometrically)
Outline: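 Growth inhibition was read photometrically 4-5 days after application, following incubation at 24° C of fungal conidia in potato dextrose broth over test compound (200 ppm, from DMSO solution) in microtiter plates.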

[6] = test system: Gaeumannomyces graminis; experiment: Gaeumannomyces graminis / liquid culture (take-all of cereals); type: cell-based; conditions: PDB potato dextrose broth, 24° C., 4-5 days after application, read-out: disease control (inhibition of growth determined photometrically)
Outline: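 Growth inhibition measured photometrically 4–5 days post-application, following incubation at 24 °C. Test compound, applied from DMSO at 200 ppm, mixed with fungal mycelial fragments in potato dextrose broth.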

[7] = test system: Monographella nivalis (Microdochium nivale); experiment: Monographella nivalis (Microdochium nivale) / liquid culture (foot rot cereals); type: cell-based; conditions: PDB potato dextrose broth, 24° C., 4-5 days after application, read-out: disease control (inhibition of growth determined photometrically)
[8] = test system: Fusarium culmorum; experiment: microbe, parasite or virus in culture; type: cell-based; conditions: read-out: disease control (inhibition of growth determined visually)
[9] = test system: Thanatephorus cucumeris (Rhizoctonia solani); experiment: Thanatephorus cucumeris (Rhizoctonia solani) / liquid culture (foot rot, damping-off); type: cell-based; conditions: PDB potato dextrose broth, 24° C., 3-4 days after application, read-out: disease control (inhibition of growth determined photometrically)
Outline: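 Photometric growth-inhibition readout taken 3-4 days after application, with cultures incubated at 24 °C. Test compound was applied at 200 ppm from DMSO solution to R. solani mycelial fragments in PDB.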

[10] = test system: Sclerotinia sclerotiorum; experiment: Sclerotinia sclerotiorum / liquid culture (cottony rot); type: cell-based; conditions: PDB potato dextrose broth, 24° C., 3-4 days after application, read-out: disease control (inhibition of growth determined visually)
Description: 18. Sclerotinia sclerotiorum/Liquid Culture (Cottony Rot): Mycelia fragments of a newly grown liquid culture of the fungus were directly mixed into nutrient broth (PDB potato dextrose broth). After placing a (DMSO) solution of the test compounds into a microtiter plate (96-well format) the nutrient broth containing the fungal material was added. The test plates were incubated at 24° C. and the inhibition of growth was determined visually 3-4 days after application.

[11] = test system: Plasmopara viticola; experiment: whole plant or invertebrate; type: in vivo; conditions: foliar, read-out: disease control
[12] = test system: Puccinia recondita f. sp. tritici; experiment: Puccinia recondita f. sp. tritici / wheat / leaf disc preventative (brown rust); type: in vivo; conditions: foliar, wheat leaf segments cv Kanzler, inoculated 1 day after application, assessed 7-9 days after application, read-out: disease control
Excerpt: 3. Puccinia recondita f. sp. tritici/Wheat/Leaf Disc Preventative (Brown Rust): Wheat leaf segments cultivated variety (cv) Kanzler were placed on agar in 24-well plates and sprayed with formulated test compound diluted in water at an application rate of 200 ppm. The leaf disks were inoculated with a spore suspension of the fungus 1 day after application.

[13] = test system: Puccinia recondita f. sp. tritici; experiment: Puccinia recondita f. sp. tritici / wheat / leaf disc curative (brown rust); type: in vivo; conditions: foliar, 192 h, wheat leaf segments, applied one day after inoculation, assessed 8 dpi, read-out: disease control
Description: 4. Puccinia recondita f. sp. tritici/Wheat/Leaf Disc Curative (Brown Rust) Wheat leaf segments are placed on agar in multiwell plates (24-well format). The leaf disks are then inoculated with a spore suspension of the fungus. One day after inoculation the test solution is applied. After appropriate incubation the activity of a compound is assessed 8 dpi (days after inoculation) as curative fungicidal activity. Dose range: 200-22 ppm.

Compound	inhibition at 200 ppm [1] [%]	inhibition at 200 ppm [2] [%]	inhibition at 200 ppm [3] [%]	inhibition at 200 ppm [4] [%]	inhibition at 200 ppm [5] [%]	inhibition at 200 ppm [6] [%]	inhibition at 200 ppm [7] [%]	inhibition at 200 ppm [8] [%]	inhibition at 200 ppm [9] [%]	inhibition at 200 ppm [10] [%]	melting point [°C]	pest or weed control at 200 ppm [11] [%]	pest or weed control at 200 ppm [12] [%]	pest or weed control at 200 ppm [13] [%]
O=C(OCc1cccc(F)c1)c1ccc2c(c1)B(O)OC2 [Compound 375]	≥ 80	≥ 80	≥ 80	≥ 80	≥ 80	≥ 80	≥ 80	≥ 80	≥ 80	≥ 80	125 to 127	–	–	–
COC(=O)COC(=O)c1ccc2c(c1)B(O)OC2 [Compound 356]	≥ 80	–	≥ 80	≥ 80	–	≥ 80	≥ 80	–	≥ 80	–	–	≥ 80	≥ 80	≥ 80
Cc1csc(NC(=O)c2cc3c(cc2Cl)COB3O)n1 [Compound 147]	≥ 80	–	≥ 80	≥ 80	–	–	≥ 80	–	–	≥ 80	–	–	–	–
COC(=O)C#CCOC(=O)c1cc2c(cc1F)COB2O [Compound 424]	≥ 80	≥ 80	≥ 80	≥ 80	≥ 80	≥ 80	≥ 80	≥ 80	≥ 80	≥ 80	112 to 114	≥ 80	–	–
C=C(C)COC(=O)c1ccc2c(c1)B(O)OC2 [Compound 339]	≥ 80	–	≥ 80	≥ 80	≥ 80	≥ 80	≥ 80	–	≥ 80	–	–	≥ 80	–	≥ 80
N#CCOC(=O)c1cc2c(cc1F)COB2O [Compound 401]	≥ 80	–	–	–	–	–	–	–	–	–	–	≥ 80	–	≥ 80
C=CCC(OC(=O)c1cc2c(cc1F)COB2O)C(=O)OC (stereo not shown) [Compound 410]	≥ 80	–	–	–	–	≥ 80	≥ 80	–	≥ 80	≥ 80	–	≥ 80	–	–
C=CCC(OC(=O)c1ccc2c(c1)B(O)OC2)C(=O)OC (stereo not shown) [Compound 348]	≥ 80	–	≥ 80	≥ 80	–	–	–	–	≥ 80	–	–	≥ 80	–	≥ 80
COC(=O)C#CCOC(=O)c1ccc2c(c1)B(O)OC2 [Compound 361]	≥ 80	≥ 80	≥ 80	≥ 80	≥ 80	≥ 80	≥ 80	≥ 80	≥ 80	≥ 80	–	≥ 80	–	–
C=CCOC(=O)c1cc2c(cc1Cl)COB2O [Compound 215]	≥ 80	–	≥ 80	≥ 80	≥ 80	≥ 80	≥ 80	≥ 80	≥ 80	≥ 80	–	–	–	–
COC(COC(=O)c1cc2c(cc1Cl)COB2O)OC [Compound 449]	≥ 80	–	≥ 80	≥ 80	≥ 80	≥ 80	≥ 80	≥ 80	–	≥ 80	122 to 124	–	–	–
O=C(OCC1CCC1)c1cc2c(cc1Cl)COB2O [Compound 225]	≥ 80	≥ 80	≥ 80	≥ 80	≥ 80	≥ 80	≥ 80	–	≥ 80	–	115 to 117	–	≥ 80	–
C=CCCOC(=O)c1cc2c(cc1F)COB2O [Compound 389]	≥ 80	–	≥ 80	≥ 80	≥ 80	≥ 80	≥ 80	≥ 80	≥ 80	≥ 80	107 to 109	–	–	–
CCCCCCCOC(=O)c1ccc2c(c1)B(O)OC2 [Compound 317]	≥ 80	≥ 80	≥ 80	≥ 80	≥ 80	≥ 80	≥ 80	–	≥ 80	–	–	≥ 80	≥ 80	–
O=C(OCC(F)F)c1ccc2c(c1)B(O)OC2 [Compound 365]	≥ 80	–	–	≥ 80	–	≥ 80	–	–	–	–	–	≥ 80	–	≥ 80
CCC#CCOC(=O)c1cc2c(cc1F)COB2O [Compound 379]	≥ 80	–	≥ 80	≥ 80	≥ 80	≥ 80	≥ 80	≥ 80	≥ 80	≥ 80	–	≥ 80	–	–
C=C(C)COC(=O)c1cc2c(cc1F)COB2O [Compound 402]	≥ 80	–	–	≥ 80	≥ 80	≥ 80	≥ 80	–	≥ 80	–	–	–	–	≥ 80
O=C(OCC#Cc1ccccc1)c1ccc2c(c1)B(O)OC2 [Compound 359]	≥ 80	≥ 80	–	≥ 80	≥ 80	≥ 80	≥ 80	≥ 80	≥ 80	≥ 80	–	≥ 80	–	–
COC(=O)C(C)OC(=O)c1cc2c(cc1F)COB2O (stereo not shown) [Compound 393]	≥ 80	–	–	–	–	≥ 80	–	–	≥ 80	–	–	≥ 80	–	≥ 80
C#CCCOC(=O)c1ccc2c(c1)B(O)OC2 [Compound 355]	≥ 80	–	≥ 80	≥ 80	≥ 80	≥ 80	≥ 80	–	≥ 80	–	–	≥ 80	–	≥ 80

Source: patent US20170000133A1, “BENZOXABOROLE FUNGICIDES” (SYNGENTA PARTICIPATIONS AG, priority 2013, published 2017)
